Source: US11192891B2, “Diazaspiro ROCK inhibitors” (BRISTOL-MYERS SQUIBB COMPANY, priority 2017, dated 2021)

Target: ROCK2 (Homo sapiens, UniProt O75116)
Assay: ROCK kinase inhibition assay, FITC peptide substrate, LABCHIP 3000 readout
Assay type: biochemical
Conditions: 5 μM ATP, 1.5 μM peptide substrate
Outline: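 Tested across a concentration range, with percent inhibition of kinase activity derived per concentration. Peptide phosphorylation, initiated by adding the Rho kinase variant (final DMSO <2%), was quenched with EDTA and substrate/product resolved by mobility shift.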

Sequence of ROCK2 (O75116 whole entry, species assumed): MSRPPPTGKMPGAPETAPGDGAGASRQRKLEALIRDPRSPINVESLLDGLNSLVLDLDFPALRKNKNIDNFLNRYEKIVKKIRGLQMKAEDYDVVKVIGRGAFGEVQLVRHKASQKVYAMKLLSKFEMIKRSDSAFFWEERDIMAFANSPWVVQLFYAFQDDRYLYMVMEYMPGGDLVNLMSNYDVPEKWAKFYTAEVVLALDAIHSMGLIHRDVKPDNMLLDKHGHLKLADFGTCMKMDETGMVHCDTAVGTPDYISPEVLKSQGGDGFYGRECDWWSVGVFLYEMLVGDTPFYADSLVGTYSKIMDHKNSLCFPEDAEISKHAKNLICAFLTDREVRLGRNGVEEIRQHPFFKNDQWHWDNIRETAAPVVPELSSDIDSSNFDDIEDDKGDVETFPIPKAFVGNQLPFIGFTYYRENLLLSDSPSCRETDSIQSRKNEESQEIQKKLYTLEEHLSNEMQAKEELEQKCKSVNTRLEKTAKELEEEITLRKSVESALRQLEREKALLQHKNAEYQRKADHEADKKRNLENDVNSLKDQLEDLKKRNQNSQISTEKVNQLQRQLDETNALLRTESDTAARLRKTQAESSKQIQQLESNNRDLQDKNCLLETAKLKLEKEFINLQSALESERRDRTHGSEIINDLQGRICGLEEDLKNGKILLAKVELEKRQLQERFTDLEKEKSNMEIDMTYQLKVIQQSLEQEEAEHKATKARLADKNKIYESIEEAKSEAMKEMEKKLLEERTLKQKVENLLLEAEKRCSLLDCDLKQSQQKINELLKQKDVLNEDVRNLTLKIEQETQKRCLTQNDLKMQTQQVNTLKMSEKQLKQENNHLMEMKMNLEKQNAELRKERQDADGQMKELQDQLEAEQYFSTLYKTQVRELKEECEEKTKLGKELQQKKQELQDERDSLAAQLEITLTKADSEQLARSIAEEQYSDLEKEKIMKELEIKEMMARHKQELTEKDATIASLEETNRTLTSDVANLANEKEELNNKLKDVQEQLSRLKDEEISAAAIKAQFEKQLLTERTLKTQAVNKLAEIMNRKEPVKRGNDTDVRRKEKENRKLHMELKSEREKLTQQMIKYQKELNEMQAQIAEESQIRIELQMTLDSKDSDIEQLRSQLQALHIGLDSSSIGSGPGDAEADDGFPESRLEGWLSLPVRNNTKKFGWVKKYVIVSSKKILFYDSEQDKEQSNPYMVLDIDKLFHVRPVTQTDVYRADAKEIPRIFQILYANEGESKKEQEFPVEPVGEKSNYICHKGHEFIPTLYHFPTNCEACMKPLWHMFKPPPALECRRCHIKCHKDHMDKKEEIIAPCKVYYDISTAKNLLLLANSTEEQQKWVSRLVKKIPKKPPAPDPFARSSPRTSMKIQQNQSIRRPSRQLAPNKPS

Compound | IC50 [nM]
COc1ccc2cc(C(=O)N3CCC4(CC3)CCN(c3ccc(-c5cn[nH]c5)c(OC)c3)C4=O)ccc2c1 [Example 176, 2-[3-methoxy-4-(1H-pyrazol-4-yl)phenyl]-8-(6-methoxynaphthalene-2-carbonyl)-2,8-diazaspiro[4.5]decan-1-one] | 20
COc1cc(N2CCC3(CCN(C(=O)c4ccc5c(c4)CC(=O)N5)CC3)C2=O)ccc1-c1cn[nH]c1 [Example 177, 2-[3-methoxy-4-(1H-pyrazol-4-yl)phenyl]-8-(2-oxo-2,3-dihydro-1H-indole-5-carbonyl)-2,8-diazaspiro[4.5]decan-1-one] | 78
COc1cc2cc(C(=O)N3CCC4(CC3)CCN(c3ccc(-c5cn[nH]c5)c(OC)c3)C4=O)n(C)c2cc1OC [Example 178] | 14
COc1cc(N2CCC3(CCN(C(=O)c4ccc5c(c4)nc(C)n5C)CC3)C2=O)ccc1-c1cn[nH]c1 [Example 179, 8-(1,2-dimethyl-1H-1,3-benzodiazole-5-carbonyl)-2-[3-methoxy-4-(1H-pyrazol-4-yl)phenyl]-2,8-diazaspiro[4.5]decan-1-one] | 2.3
COc1cc(N2CCC3(CCN(C(=O)c4ccc(CN5CCOCC5)cc4)CC3)C2=O)ccc1-c1cn[nH]c1 [Example 180, 2-[3-methoxy-4-(1H-pyrazol-4-yl)phenyl]-8-{4-[(morpholin-4-yl)methyl]benzoyl}-2,8-diazaspiro[4.5]decan-1-one] | 27
COc1cc(N2CCC3(CCN(C(=O)c4ccc(C(N)=O)cc4)CC3)C2=O)ccc1-c1cn[nH]c1 [Example 181, 4-{2-[3-methoxy-4-(1H-pyrazol-4-yl)phenyl]-1-oxo-2,8-diazaspiro[4.5]decane-8-carbonyl}benzamide] | 35
COc1cc(N2CCC3(CCN(C(=O)c4ccc5nc(-c6ccncc6)[nH]c5c4)CC3)C2=O)ccc1-c1cn[nH]c1 [Example 182, 2-[3-methoxy-4-(1H-pyrazol-4-yl)phenyl]-8-[2-(pyridin-4-yl)-1H-1,3-benzodiazole-6-carbonyl]-2,8-diazaspiro[4.5]decan-1-one] | 16
COc1cc(N2CCC3(CCN(C(=O)c4ccc(Cn5ccnc5)cc4)CC3)C2=O)ccc1-c1cn[nH]c1 [Example 183, 8-{4-[(1H-imidazol-1-yl)methyl]benzoyl}-2-[3-methoxy-4-(1H-pyrazol-4-yl)phenyl]-2,8-diazaspiro[4.5]decan-1-one] | 23
COc1ccc(C(=O)N2CCC3(CC2)CCN(c2ccc(-c4cn[nH]c4)c(OC)c2)C3=O)c(OCc2ccccc2)c1 [Example 184, 8-[2-(benzyloxy)-4-methoxybenzoyl]-2-[3-methoxy-4-(1H-pyrazol-4-yl)phenyl]-2,8-diazaspiro[4.5]decan-1-one] | 12
COc1cc(N2CCC3(CCN(C(=O)c4ccc(-c5nc(C)no5)cc4)CC3)C2=O)ccc1-c1cn[nH]c1 [Example 185, 2-[3-methoxy-4-(1H-pyrazol-4-yl)phenyl]-8-[4-(3-methyl-1,2,4-oxadiazol-5-yl)benzoyl]-2,8-diazaspiro[4.5]decan-1-one] | 37
COc1cc(N2CCC3(CCN(C(=O)c4ccc(N5CCN(Cc6cccc(Cl)c6)CC5)cc4)CC3)C2=O)ccc1-c1cn[nH]c1 [Example 186, 8-(4-{4-[(3-chlorophenyl)methyl]piperazin-1-yl}benzoyl)-2-[3-methoxy-4-(1H-pyrazol-4-yl)phenyl]-2,8-diazaspiro[4.5]decan-1-one] | 1.2
COc1cc(N2CCC3(CCN(C(=O)c4cc(C)[nH]n4)CC3)C2=O)ccc1-c1cn[nH]c1 [Example 187, 2-[3-methoxy-4-(1H-pyrazol-4-yl)phenyl]-8-(5-methyl-1H-pyrazole-3-carbonyl)-2,8-diazaspiro[4.5]decan-1-one] | 27
COc1cc(N2CCC3(CCN(C(=O)c4cc(C)n(C)n4)CC3)C2=O)ccc1-c1cn[nH]c1 [Example 188, 8-(1,5-dimethyl-1H-pyrazole-3-carbonyl)-2-[3-methoxy-4-(1H-pyrazol-4-yl)phenyl]-2,8-diazaspiro[4.5]decan-1-one] | 31
COc1cc(N2CCC3(CCN(C(=O)c4ccc(N)cc4Cl)CC3)C2=O)ccc1-c1cn[nH]c1 [Example 189, 8-(4-amino-2-chlorobenzol)-2-[3-methoxy-4-(1H-pyrazol-4-yl)phenyl]-2,8-diazaspiro[4.5]decan-1-one] | 38
COc1cc(N2CCC3(CCN(C(=O)c4ccc(N5CCCC5)cc4)CC3)C2=O)ccc1-c1cn[nH]c1 [Example 191] | 4
COc1cc(N2CCC3(CCN(C(=O)c4ccc(N5CCCCS5(=O)=O)cc4)CC3)C2=O)ccc1-c1cn[nH]c1 [Example 192, 8-(4-(1,1-dioxido-1,2-thiazinan-2-yl)benzoyl)-2-(3-methoxy-4-(1H-pyrazol-4-yl)phenyl)-2,8-diazaspiro[4.5]decan-1-one] | 3.3

Compound | IC50 [nM]
COc1cc(N2CCC3(CCN(C(=O)c4ccc(-n5cccc5)cc4)CC3)C2=O)ccc1-c1cn[nH]c1 [Example 193, 2-[3-methoxy-4-(1H-pyrazol-4-yl)phenyl]-8-[4-(1H-pyrrol-1-yl)benzoyl]-2,8-diazaspiro[4.5]decan-1-one] | 12
CCN(CC)c1ccc(C(=O)N2CCC3(CC2)CCN(c2ccc(-c4cn[nH]c4)c(OC)c2)C3=O)cc1 [Example 194, 8-[4-(diethylamino)benzoyl]-2-[3-methoxy-4-(1H-pyrazol-4-yl)phenyl]-2,8-diazaspiro[4.5]decan-1-one] | 5.2
COc1cc(N2CCC3(CCN(C(=O)c4ccc(Br)cc4)CC3)C2=O)ccc1-c1cn[nH]c1 [Example 195, 8-(4-bromobenzoyl)-2-[3-methoxy-4-(1H-pyrazol-4-yl)phenyl]-2,8-diazaspiro[4.5]decan-1-one] | 33
COc1cc(N2CCC3(CCN(C(=O)c4ccc5c(c4)nnn5C)CC3)C2=O)ccc1-c1cn[nH]c1 [Example 196, 2-[3-methoxy-4-(1H-pyrazol-4-yl)phenyl]-8-(1-methyl-1H-1,2,3-benzotriazole-5-carbonyl)-2,8-diazaspiro[4.5]decan-1-one] | 9.1
COc1cc(N2CCC3(CCN(C(=O)c4cccc5[nH]cnc45)CC3)C2=O)ccc1-c1cn[nH]c1 [Example 197, 8-(1H-1,3-benzodiazole-4-carbonyl)-2-[3-methoxy-4-(1H-pyrazol-4-yl)phenyl]-2,8-diazaspiro[4.5]decan-1-one] | 61
COc1cc(N2CCC3(CCN(C(=O)c4cnn5cccnc45)CC3)C2=O)ccc1-c1cn[nH]c1 [Example 198, 2-[3-methoxy-4-(1H-pyrazol-4-yl)phenyl]-8-{pyrazolo[1,5-a]pyrimidine-3-carbonyl}-2,8-diazaspiro[4.5]decan-1-one] | 1060
COc1ccc2c(OC)ccc(C(=O)N3CCC4(CC3)CCN(c3ccc(-c5cn[nH]c5)c(OC)c3)C4=O)c2c1 [Example 199, 8-(4,7-dimethoxynaphthalene-1-carbonyl)-2-[3-methoxy-4-(1H-pyrazol-4-yl)phenyl]-2,8-diazaspiro[4.5]decan-1-one] | 186
COc1cc(N2CCC3(CCN(C(=O)c4cc(C(C)C)n5ncnc(O)c45)CC3)C2=O)ccc1-c1cn[nH]c1 [Example 200, 8-[4-hydroxy-7-(propan-2-yl)pyrrolo[2,1-f][1,2,4]triazine-5-carbonyl]-2-[3-methoxy-4-(1H-pyrazol-4-yl)phenyl]-2,8-diazaspiro[4.5]decan-1-one] | 2.1
COc1cc(N2CCC3(CCN(C(=O)c4c[nH]c5ccc(C#N)cc45)CC3)C2=O)ccc1-c1cn[nH]c1 [Example 201, 3-{2-[3-methoxy-4-(1H-pyrazol-4-yl)phenyl]-1-oxo-2,8-diazaspiro[4.5]decane-8-carbonyl}-1H-indole-5-carbonitrile] | 718
COc1cc(N2CCC3(CCN(C(=O)c4ccn5nc[nH]c(=O)c45)CC3)C2=O)ccc1-c1cn[nH]c1 [Example 202, 2-[3-methoxy-4-(1H-pyrazol-4-yl)phenyl]-8-{4-oxo-3H,4H-pyrrolo[2,1-f][1,2,4]triazine-5-carbonyl}-2,8-diazaspiro[4.5]decan-1-one] | 5.4
COc1cc(N2CCC3(CCN(C(=O)c4cccc5ccncc45)CC3)C2=O)ccc1-c1cn[nH]c1 [Example 203, 8-(isoquinoline-8-carbonyl)-2-[3-methoxy-4-(1H-pyrazol-4-yl)phenyl]-2,8-diazaspiro[4.5]decan-1-one] | 326
COCCN1Cc2cccc(C(=O)N3CCC4(CC3)CCN(c3ccc(-c5cn[nH]c5)c(OC)c3)C4=O)c2C1=O [Example 204, 2-[3-methoxy-4-(1H-pyrazol-4-yl)phenyl]-8-[2-(2-methoxyethyl)-3-oxo-2,3-dihydro-1H-isoindole-4-carbonyl]-2,8-diazaspiro[4.5]decan-1-one] | 50
COc1cc(N2CCC3(CCN(C(=O)c4ccc(N5CCN(C(=O)OC(C)(C)C)CC5)cc4)CC3)C2=O)ccc1-c1cn[nH]c1 [Example 205, tert-butyl 4-(4-{2-[3-methoxy-4-(1H-pyrazol-4-yl)phenyl]-1-oxo-2,8-diazaspiro[4.5]decane-8-carbonyl}phenyl)piperazine-1-carboxylate] | 8.9
COc1ccc(S(=O)(=O)N2CCC3(CCN(c4ccc(-c5cn[nH]c5)c(OC)c4)C3=O)CC2)cc1 [Example 206, 2-[3-methoxy-4-(1H-pyrazol-4-yl)phenyl]-8-(4-methoxybenzenesulfonyl)-2,8-diazaspiro[4.5]decan-1-one] | 497
COc1cccc(S(=O)(=O)N2CCC3(CCN(c4ccc(-c5cn[nH]c5)c(OC)c4)C3=O)CC2)c1 [Example 207, 2-[3-methoxy-4-(1H-pyrazol-4-yl)phenyl]-8-(3-methoxybenzenesulfonyl)-2,8-diazaspiro[4.5]decan-1-one] | 266
COC(=O)c1ccc(S(=O)(=O)N2CCC3(CCN(c4ccc(-c5cn[nH]c5)c(OC)c4)C3=O)CC2)o1 [Example 208, methyl 5-({2-[3-methoxy-4-(1H-pyrazol-4-yl)phenyl]-1-oxo-2,8-diazaspiro[4.5]decan-8-yl}sulfonyl)furan-2-carboxylate] | 2070
